Read-outs that look alike come from different tables or passages of the source.
Experiments:
[1] = molecular target: T1, human BACE2 (1-460):Fc (Homo sapiens, UniProt Q9Y5Z0); assay: BACE2 TMEM27 FRET Assay; assay type: biochemical
T1 construct: made in house; host or cells: HEK293 (transient transfection, purified from conditioned media by Protein A)
T1 sequence (Q9Y5Z0 21-460): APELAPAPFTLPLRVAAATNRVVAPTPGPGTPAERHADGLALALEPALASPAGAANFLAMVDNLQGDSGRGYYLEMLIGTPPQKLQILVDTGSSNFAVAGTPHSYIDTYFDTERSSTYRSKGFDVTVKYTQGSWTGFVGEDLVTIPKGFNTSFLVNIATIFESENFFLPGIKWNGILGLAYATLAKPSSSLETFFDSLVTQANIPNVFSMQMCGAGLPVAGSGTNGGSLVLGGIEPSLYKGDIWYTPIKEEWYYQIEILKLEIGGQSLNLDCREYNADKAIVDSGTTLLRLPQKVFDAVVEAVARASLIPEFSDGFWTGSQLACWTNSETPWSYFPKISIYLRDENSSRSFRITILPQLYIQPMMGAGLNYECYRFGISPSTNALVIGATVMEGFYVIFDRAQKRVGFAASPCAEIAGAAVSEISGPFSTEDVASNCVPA
Protocol: (§1) To assess selectivity of BACE1 over BACE2, the test compound is evaluated in FRET-based enzymatic assays using specific substrates for BACE1 and BACE2 as described below. For in vitro enzymatic and cellular assays, the test compound is prepared in DMSO to make up a 10 mM stock solution. The stock solution is serially diluted in DMSO to obtain a ten-point dilution curve with final compound concentrations ranging from 10 μM to 0.05 nM in a 96-well round-bottom plate before conducting the in vitro enzymatic and whole cell assays.
Human BACE1 (accession number: AF190725) and human BACE2 (accession number: AF 204944) are cloned from total brain cDNA by RT-PCR. […]
(§2) Conditioned media of HEK293 cell transiently transfected with huBACE1:Fc or huBACE2:Fc cDNA are collected. […] The purity of final product is assessed by electrophoresis in 4-20% Tris-Glycine SDS-PAGE. […]
Transmembrane protein 27 (TMEM27) (Accession Number NM_020665), also known as Collectrin) is a recently described substrate for BACE2, but not BACE1 (Esterhazy, et al, Cell Metabolism, 14, 365-377 (2011)). […] The RFU of the mixture at time 0 is recorded at excitation wavelength 430 nm and emission wavelength 535 nm. […] The RFU at the end of incubation is recorded with the same excitation and emission settings used at time 0. […]

[2] = molecular target: T2, human BACE1(1-460):Fc (Homo sapiens, UniProt P56817); assay: BACE1 FRET Assay; assay type: biochemical; conditions: purified recombinant huBACE1:Fc, FRET substrate based on APP; Mean±SEM 0.48, n=4
T2 construct: made in house; host or cells: HEK293 (transient transfection, purified from conditioned media by Protein A)
Protocol: as §1
Human BACE1 (accession number: AF190725) and human BACE2 (accession number: AF 204944) are cloned from total brain cDNA by RT-PCR. The nucleotide sequences corresponding to amino acid sequences #1 to 460 are inserted into the cDNA encoding human IgG1 (Fc) polypeptide (Vassar et al., Science, 286, 735-742 (1999)). […]
as §2
Serial dilutions of the test compound are prepared as described above. […] The RFU of the mixture at time 0 is recorded at excitation wavelength 355 nm and emission wavelength 460 nm, after brief mixing on a plate shaker. […] The RFU at the end of incubation is recorded with the same excitation and emission settings used at time 0. […]

[3] = molecular target: T3, BACE1 (Homo sapiens, UniProt P56817); assay: SH-SY5YAPP695Wt Whole Cell Assay (Abeta ELISA); assay type: cell-based; conditions: 24 hours incubation, conditioned media, Mean ± SEM, n = 4
T3 construct: endogenous in cells; host or cells: SH-SY5Y (ATCC CRL2266) stably expressing human APP695Wt
Protocol: as §1
The routine whole cell assay for the measurement of inhibition of BACE1 activity utilizes the human neuroblastoma cell line SH-SY5Y (ATCC Accession No. CRL2266) stably expressing a human APP695Wt cDNA. Cells are routinely used up to passage number 6 and then discarded.
SH-SY5YAPP695Wt cells are plated in 96 well tissue culture plates at 5.0×10^4 cells/well in 200 μL culture media (50% MEM/EBSS and Ham's F12, lx each sodium pyruvate, non-essential amino acids and Na bicarbonate containing 10% FBS). The following day, media is removed from the cells, fresh media added then incubated at 37° C. for 24 hours in the presence/absence of test compound at the desired concentration range.
At the end of the incubation, conditioned media are analyzed for evidence of beta-secretase activity by analysis of Abeta peptides 1-40 and 1-42 by specific sandwich ELISAs. […]

T3 sequence (P56817 46-501): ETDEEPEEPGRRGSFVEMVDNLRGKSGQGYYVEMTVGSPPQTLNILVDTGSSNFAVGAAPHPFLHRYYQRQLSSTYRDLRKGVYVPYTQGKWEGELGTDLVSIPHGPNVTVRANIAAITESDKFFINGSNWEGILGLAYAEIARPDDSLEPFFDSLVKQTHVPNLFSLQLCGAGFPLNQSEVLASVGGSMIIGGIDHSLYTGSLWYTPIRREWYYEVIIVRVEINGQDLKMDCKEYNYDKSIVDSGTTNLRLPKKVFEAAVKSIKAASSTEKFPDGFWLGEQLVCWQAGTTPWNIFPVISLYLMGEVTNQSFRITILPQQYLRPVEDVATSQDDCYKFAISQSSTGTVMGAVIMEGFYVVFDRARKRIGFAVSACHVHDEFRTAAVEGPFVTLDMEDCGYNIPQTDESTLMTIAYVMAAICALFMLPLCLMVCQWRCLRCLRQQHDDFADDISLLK
T2 sequence (P56817 22-460): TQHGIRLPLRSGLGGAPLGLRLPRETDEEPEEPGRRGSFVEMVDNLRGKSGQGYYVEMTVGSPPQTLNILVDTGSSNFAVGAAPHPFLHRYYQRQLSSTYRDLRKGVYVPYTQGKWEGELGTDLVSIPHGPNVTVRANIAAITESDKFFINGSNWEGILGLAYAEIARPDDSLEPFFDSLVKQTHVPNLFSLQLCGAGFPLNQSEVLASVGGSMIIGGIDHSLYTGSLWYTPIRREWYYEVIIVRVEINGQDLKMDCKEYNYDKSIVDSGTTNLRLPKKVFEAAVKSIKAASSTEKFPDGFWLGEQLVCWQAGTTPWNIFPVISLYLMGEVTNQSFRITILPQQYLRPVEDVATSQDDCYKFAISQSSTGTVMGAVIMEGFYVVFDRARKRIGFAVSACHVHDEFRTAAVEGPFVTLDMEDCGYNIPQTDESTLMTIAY

For CC(F)(F)[C@H]1OC[C@]2(c3cc(NC(=O)c4cnc(-n5cncn5)cn4)ccc3F)N=C(N)SC[C@H]12 [Example 1, N-[3-[(4aS,5S,7aS)-2-Amino-5-(1,1-difluoroethyl)-4,4a,5,7-tetrahydrofuro[3,4-d][1,3]thiazin-7a-yl]-4-fluoro-phenyl]-5-(1,2,4-triazol-1-yl)pyrazine-2-carboxamide], the IC50 ([1]; huBACE2:Fc, TMEM27 FRET substrate, Mean±SEM 202, n=4) was 479 nM, the “BACE2 IC50 / BACE1 IC50 ratio (selectivity for BACE1)” value ([1]; selectivity for BACE1 over BACE2) was “about 400 fold” and the IC50 [2] was 1.19 nM. The IC50 ([3]; read-out: SH-SY5YAPP695Wt A-beta (1-40) ELISA IC50) was 0.385 ± 0.163 nM and the IC50 ([3]; read-out: SH-SY5YAPP695Wt A-beta (1-42) ELISA IC50) was 0.381 ± 0.266 nM.

From patent US9522923B2, “Selective BACE1 inhibitors” (Eli Lilly and Company, priority 2015, dated 2016)
